Data set [1] is described as follows: Solubility in buffer at pH 7.4. The class given is physicochemical.
Data set [2] is described as follows: Partition coefficient in Chloroform-buffer at pH 7.4. Format: physicochemical.
For the next data set, the target named is T1, Carbonic anhydrase 4 (Bos taurus, UniProt Q95323).
T1 sequence (Q95323 whole entry): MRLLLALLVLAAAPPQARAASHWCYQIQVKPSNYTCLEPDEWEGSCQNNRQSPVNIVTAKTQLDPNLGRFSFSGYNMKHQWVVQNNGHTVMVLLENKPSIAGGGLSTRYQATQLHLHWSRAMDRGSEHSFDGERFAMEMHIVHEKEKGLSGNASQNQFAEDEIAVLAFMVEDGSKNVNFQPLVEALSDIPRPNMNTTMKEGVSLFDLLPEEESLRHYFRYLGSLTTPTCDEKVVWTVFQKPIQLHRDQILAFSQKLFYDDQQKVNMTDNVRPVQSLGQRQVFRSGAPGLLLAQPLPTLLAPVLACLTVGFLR

A further data set addresses Carbonic anhydrase 1 (Homo sapiens, UniProt P00915).
The conditions of data set [3]: octanol/water.
Assay in data set [4]: not given
This is another data set of the same source.

The next data set can be described thus: physchem. The settings on record: buffer, pH 5.5.
Data set [5] in a line: Solubility in Chloroform buffer at pH 7.4. The class given is physicochemical.
Assay in data set [6]: not given
The source holds these as a separate data set.

Assay in data set [7]: not given
The source holds these as a separate data set.

The species named for data set [8] is Oryctolagus cuniculus.
For data set [9], the species on record is Oryctolagus cuniculus. The source holds these as a separate data set.
The species entered for data set [10] is Oryctolagus cuniculus. This is another data set of the same source.
The species entered for data set [11] is Oryctolagus cuniculus. The source holds these as a separate data set.
Data set [12] is described as follows: Solubility in chloroform buffer at pH 7.4. Format: physicochemical.

Values after ≈ are worked out from the molar mass of the structure shown.

Sequence of Carbonic anhydrase 1 (P00915 whole entry): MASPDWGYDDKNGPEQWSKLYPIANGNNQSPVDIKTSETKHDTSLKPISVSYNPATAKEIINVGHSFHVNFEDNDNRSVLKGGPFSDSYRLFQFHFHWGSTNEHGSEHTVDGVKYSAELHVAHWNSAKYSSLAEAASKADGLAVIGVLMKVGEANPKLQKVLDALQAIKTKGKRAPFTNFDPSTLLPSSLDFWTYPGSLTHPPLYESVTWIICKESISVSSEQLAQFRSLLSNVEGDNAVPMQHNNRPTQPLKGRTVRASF
Description for Carbonic anhydrase 1: Inhibitory activity against Human carbonic anhydrase I
Description for Carbonic anhydrase 4: Inhibitory activity against bovine carbonic anhydrase IV
Description for physchem: Solubility in buffer at pH 5.5

As usually defined, the solubility is the dissolved amount per volume that the medium holds. Higher therefore signals much dissolved substance. As a reminder, the logD is lipophilicity at a set pH, counting ionised and neutral species. A lower logD goes with a more hydrophilic compound. A word on the Ki: it is the dissociation constant of the complex between target and ligand, obtained from inhibition or displacement. A high value points to a looser hold on the target. For `NS(=O)(=O)c1nc2ccc(OCCOC(=O)CN(CC(=O)O)CC(=O)O)cc2s1`, in data set [1], the solubility worked out at 37 mM (≈ 16.6 mg/mL). The pH-dependent lipophilicity (logD) in data set [2] was 1.925. For the same molecule, the Ki on Carbonic anhydrase 4 was determined as 10 nM; at Carbonic anhydrase 1, 44 nM.

On to `NS(=O)(=O)c1ccc(NC(=O)CN(CCOCCOCCN(CC(=O)O)CC(=O)Nc2ccc(S(N)(=O)=O)cc2F)CC(=O)O)c(F)c1`, for which the “Kin x10e3” value came out at 8.3 hr-1. Affinity at Carbonic anhydrase 4 was put at a Ki of 16 nM. On Carbonic anhydrase 1, the Ki worked out at 155 nM. In addition, the logD in [3] is 1.534. Further, the “Kin x10e3” value in data set [4] is on record as 4.5 hr-1. This molecule also showed a solubility in “physchem” of 47 mM (≈ 34.1 mg/mL).

In the case of `Cn1nc(S(N)(=O)=O)s/c1=N/C(=O)CN(CCN(CC(=O)O)CC(=O)O)CC(=O)O`, the concentration in solution in [5] (solubility) was 65 mM (≈ 30.5 mg/mL). Besides, the Ki was 26 nM on Carbonic anhydrase 4 and 215 nM at Carbonic anhydrase 1. Also, the results for the “Kin x10e3” value in data set [6] and in data set [7] were 9.5 hr-1 and 4.8 hr-1, respectively. In [3], this molecule registered a logD of 1.75.

With `NS(=O)(=O)c1nnc(NC(=O)CN(CCN(CCN(CC(=O)O)CC(=O)O)CC(=O)O)CC(=O)O)s1`, the concentration in solution in data set [5] (solubility) was 59 mM (≈ 32.8 mg/mL). The molecule also registered a Ki on Carbonic anhydrase 4 of 28 nM. The “Kin x10e3” value in [6] worked out at 8.1 hr-1; in data set [7] it was 4.3 hr-1. In [3], the logD was found to be 1.375.

`NS(=O)(=O)c1cc(S(N)(=O)=O)c(NC(=O)CN(CCN(CC(=O)O)CC(=O)Nc2c(S(N)(=O)=O)cc(S(N)(=O)=O)c(Cl)c2Cl)CC(=O)O)c(Cl)c1Cl` registered a solubility in [5] of 32 mM (≈ 28.7 mg/mL). The Ki on Carbonic anhydrase 4 worked out at 51 nM; on Carbonic anhydrase 1, 65 nM. Also, the “Kin x10e3” value was 7 hr-1 in data set [6] and 3.6 hr-1 in data set [7]. The molecule also displayed a logD in [3] of 1.764.

As for `NS(=O)(=O)c1ccc(NC(=O)CN(CCN(CCN(CC(=O)O)CC(=O)Nc2ccc(S(N)(=O)=O)cc2)CC(=O)O)CC(=O)O)cc1`, in data set [5], the solubility came to 35 mM (≈ 24.6 mg/mL). Also, the Ki at Carbonic anhydrase 4 is 156 nM. The “Kin x10e3” value is 4.5 hr-1 in data set [6] and 3.6 hr-1 in [7]. For the same molecule, in [3], the logD is given as 1.456.

`NS(=O)(=O)c1nnc(NC(=O)CCNC(=O)CN(CCN(CC(=O)O)c2ccccc2O)c2ccccc2O)s1` returned a solubility in [5] of 44 mM (≈ 26.1 mg/mL). Further, the inhibition constant Ki at Carbonic anhydrase 4 was determined as 35 nM; at Carbonic anhydrase 1 it was 210 nM. Further, the “Kin x10e3” value turned out to be 10.7 hr-1 in data set [6] and 5.1 hr-1 in data set [7]. The molecule further came in with a logD in [3] of 2.354.

In [5], `Cn1nc(S(N)(=O)=O)s/c1=N/C(=O)CN(CCN(CC(=O)O)CC(=O)/N=c1/sc(S(N)(=O)=O)nn1C)CC(=O)O` registered a solubility of 41 mM (≈ 26.4 mg/mL). On Carbonic anhydrase 4, this molecule registered a Ki of 17 nM. Besides, the “Kin x10e3” value amounted to 5.5 hr-1 in data set [6] and 3.1 hr-1 in [7]. The molecule also showed a logD in [3] of 1.333.

For the molecule “(Carboxymethyl-{2-[2-(2-{carboxymethyl-[(5-sulfamoyl-[1,3,4]thiadiazol-2-ylcarbamoyl)-methyl]-amino}-ethoxy)-ethoxy]-ethyl}-amino)-acetic acid; compound with Cu complex”, the Delta IOP stood at 0 mmHg in the data set listed under Oryctolagus cuniculus [8], 4.7 mmHg in the data set filed under Oryctolagus cuniculus [9], 9.6 mmHg in the data set listed under Oryctolagus cuniculus [10] and 13.5 mmHg in the data set filed under Oryctolagus cuniculus [11].

On to `NS(=O)(=O)c1nnc(NC(=O)CN(CCOCCOCCN(CC(=O)O)CC(=O)O)CC(=O)O)s1`, for which the “Kin x10e3” value was 8.4 hr-1. The molecule also showed an inhibition constant Ki on Carbonic anhydrase 4 of 21 nM. On Carbonic anhydrase 1, this molecule showed a Ki of 54 nM. The log distribution coefficient (logD) in data set [3] came to 1.446. Besides, in [4], the “Kin x10e3” value is 4.6 hr-1. For the same molecule, in “physchem”, the concentration in solution (solubility) was 52 mM (≈ 28.2 mg/mL).

`NS(=O)(=O)c1nnc(NC(=O)CCNC(=O)CNCC(=O)O)s1` showed a solubility in [12] of 62 mM (≈ 22.7 mg/mL). Besides, the log distribution coefficient (logD) in data set [2] was determined as 1.23. Further, the inhibition constant (Ki) on Carbonic anhydrase 4 amounted to 48 nM; at Carbonic anhydrase 1, 280 nM. Besides, the “Kin x10e3” value in data set [6] is listed as 4.6 hr-1; in data set [7], 2.5 hr-1.

Take `NS(=O)(=O)c1nnc(NC(=O)CCNC(=O)CN(CCN(CC(=O)O)CC(=O)NCCC(=O)Nc2nnc(S(N)(=O)=O)s2)CC(=O)O)s1`: the solubility in data set [1] is 46 mM (≈ 34.9 mg/mL). The Ki on Carbonic anhydrase 4 stood at 10 nM; on Carbonic anhydrase 1, 125 nM. In addition, the “Kin x10e3” value in data set [6] was 5.9 hr-1; in data set [7], 3 hr-1. The same molecule returned a logD in data set [3] of 1.15.

`NS(=O)(=O)c1ccc(NC(=O)CN(CCOCCOCCN(CC(=O)O)CC(=O)O)CC(=O)O)c(Br)c1`: the “Kin x10e3” value is 6.5 hr-1. The molecule further came in with a Ki at Carbonic anhydrase 4 of 32 nM. In addition, at Carbonic anhydrase 1, the inhibition constant Ki worked out at 78 nM. In data set [3], this molecule yielded a pH-dependent lipophilicity (logD) of 1.747. In addition, the “Kin x10e3” value in data set [4] amounted to 3.3 hr-1. Further, the solubility in “physchem” came out at 50 mM (≈ 30.7 mg/mL).

For `NS(=O)(=O)C1N=NC(NC(=O)CN(CCN(CCN(CC(=O)O)CC(=O)NC2N=NC(S(N)(=O)=O)S2)CC(=O)O)CC(=O)O)S1` (configuration not stated), the “Kin x10e3” value was 6.2 hr-1. Also, affinity on Carbonic anhydrase 4 was put at a Ki of 7 nM. Moreover, the logD in [3] amounted to 1.961. The “Kin x10e3” value in data set [4] was 3.9 hr-1. This molecule yielded a solubility in “physchem” of 54 mM (≈ 39 mg/mL).

In the case of `NS(=O)(=O)c1nc2ccc(OC(=O)CNCCNCC(=O)O)cc2s1`, the “Kin x10e3” value was 8.4 hr-1. Affinity on Carbonic anhydrase 4 was put at a Ki of 11 nM. Besides, at Carbonic anhydrase 1, affinity was put at a Ki of 45 nM. The molecule further came in with a pH-dependent lipophilicity (logD) in [3] of 1.166. Further, in data set [4], the “Kin x10e3” value is reported as 4.7 hr-1. This molecule also registered a solubility in the data set “physchem” of 44 mM (≈ 17.1 mg/mL).
